Tests used:
[1] = system: primary rat cortical neurons; assay: Glutamate excitotoxicity model, MTT cell viability, primary rat cortical neurons; type: cell-based; settings: 24 hours, 0.01-10 μM, FIG. 7B
Experimental: (§1) FIG. 7A-FIG. 7B illustrate the effects of 15d-PGJ2 at four different concentrations (0.01, 0.1, 1, and 10 μM) on glutamate induced neurotoxicity in NSC-34 cells (left-FIG. 7A) and primary rat cortical neurons (right-FIG. 7B). Cell viability was determined by the MTT assay. Data are shown as mean+SEM (n=6 or 12) as percentage of vehicle control (VC). Statistical significance is indicated by *<0.05 and **<0.01 as determined by One-Way ANOVA followed by Dunnett's Multiple Comparison Test, in comparison to glutamate lesion (L or Glu).
(§2) Primary cortical neurons were prepared from time mated Sprague Dawley rats. Animals were sacrificed and embryos were dissected in Calcium and Magnesium free Hanks Balanced Salt Solution (CMF-HBSS) containing 15 mM HEPES and 10 mM NaHCO3, pH 7.2. Embryos were decapitated, skin and skull gently removed and cortical hemispheres were separated. […] Cells were counted in a hemacytometer and 4×10^4 cells per well were seeded on poly-D-lysine pre-coated 96-well plates. […]
Viability of cultures was determined by the MTT assay using a plate-reader (570 nm). […] Optical density was measured with a plate-reader at wavelength 570 nm. Cell survival rate was expressed as optical density (OD). Values were calculated as percent of control values (vehicle control). […]

NSC-34 cells = assay: Glutamate excitotoxicity model, MTT cell viability, NSC-34 cells; type: cell-based, mouse; settings: 24 hours, 0.01-10 μM, FIG. 7A
Experimental: as §1
Viability of cultures was determined by the MTT assay using a plate-reader (570 nm). This assay allows the measurement of the mitochondrial dehydrogenase activity which reduces yellow MTT to dark blue formazan crystals. Since this reaction was catalyzed in living cells, this assay was used for the determination of cell viability. MTT solution was added to each well in a final concentration of 0.5 mg/ml. After 2 hours the MTT containing medium was aspired. Cells were lysed in 3% SDS and the formazan crystals were dissolved in isopropanol/HCl. Optical density was measured with a plate-reader at wavelength 570 nm. Cell survival rate was expressed as optical density (OD). Values were calculated as percent of control values (vehicle control).
15d-PGJ2 was tested in a glutamate excitotoxicity model, a model of ALS. […]

[2] = system: TDP43 stress granule formation of U2OS cells expressing GFP-labeled human TDP43; assay: TDP43 stress granule assay (arsenite challenge, fluorescence imaging); type: cell-based; settings: Example 2, FIG. 4; 0.01, 0.1, 1 and 10 μM, 24 h pre-incubation, sodium arsenite 250 μM 120 min; Student's t Test vs arsenite control
M3 network genes = assay: Validation of M3 network activation by RNA sequencing; type: cell-based; settings: 1 μM, primary rat cortical neurons, no glutamate lesion, FIG. 5
Experimental: Bioinformatics predictions of M3 network activation from isoflupredone was validated in naïve neuronal cells (primary rat cortical neurons).
In parallel, 5 different test items and 2 reference items at 1 concentration each were applied to primary rat cortical neurons from […] of Sprague Dawley rats. The compounds were incubated for 8 days. […] Cell viability was determined by MTT and RNA was isolated. A number of ≧3 technical replicates were used.
Test item 1: isoflupredone (1 micromolar)
as §2
Messenger RNA was extracted from the cells and sequencing libraries were prepared using the TruSeq kit and poly-A selection. The resulting libraries were sequenced at a depth of 30 million reads per sample using single-ended 75 bp reads.

CCCCC/C=C\C=C1\C(=O)C=CC1C/C=C\CCCC(=O)O (centres unmarked) [15d-PGJ2, 15-Deoxy-Δ12,14-prostaglandin J2]
effect on glutamate induced neurotoxicity (cell viability, MTT) [1]: neuroprotective effect | effect on glutamate induced neurotoxicity (cell viability, MTT) (NSC-34 cells): neuroprotective effect

C[C@]12C=CC(=O)C=C1CC[C@H]1[C@@H]3CC[C@](O)(C(=O)CO)[C@@]3(C)C[C@H](O)[C@@]12F [isoflupredone, (11β)-9-Fluoro-11,17,21-trihydroxypregna-1,4-diene-3,20-dione]
aggregation of TDP43 compared to the negative control (mean number of fluorescent aggregates per cell) [2]: statistically significant decrease | activation of M3 network genes (pattern of activation) (M3 network genes): largely up-regulation

CC(=O)[C@H]1CC[C@H]2[C@@H]3C[C@H](C)C4=CC(=O)CC[C@]4(C)[C@H]3[C@@H](O)C[C@]12C [medrysone]
aggregation of TDP43 compared to the negative control (mean number of fluorescent aggregates per cell) [2]: did not show a statistically significant effect

Reference: US20170360805A1, “MOTOR-ASSOCIATED NEURODEGENERATIVE DISEASE AND METHODS OF TREATMENT” (priority 2016, published 2017)
